Tests used:
[1] = target: T1, Dcp1/2 decapping enzyme (SpDcp1/2) (Schizosaccharomyces pombe, UniProt O13828); experiment: Susceptibility of short capped RNAs to degradation with the Dcp1/2 enzyme; format: biochemical; conditions: RNA capped with the analog; 3.5 nM Dcp1/2, time point 15 min, normalized to 0′ time
T1 construct: made in house
T1 sequence (O13828 1-243 limits assumed): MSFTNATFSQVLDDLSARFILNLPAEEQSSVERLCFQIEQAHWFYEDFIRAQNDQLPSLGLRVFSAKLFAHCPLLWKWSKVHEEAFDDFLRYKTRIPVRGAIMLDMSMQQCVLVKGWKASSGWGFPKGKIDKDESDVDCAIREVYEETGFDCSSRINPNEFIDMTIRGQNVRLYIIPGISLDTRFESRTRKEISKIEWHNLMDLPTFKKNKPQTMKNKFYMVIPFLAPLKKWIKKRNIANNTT
T1 sequence (Q9P805 1-127 partner): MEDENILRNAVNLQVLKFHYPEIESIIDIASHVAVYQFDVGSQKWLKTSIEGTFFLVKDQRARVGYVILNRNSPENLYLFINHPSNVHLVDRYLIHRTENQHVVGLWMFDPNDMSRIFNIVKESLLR
Text: Test 4. Susceptibility Study of Short RNA Molecules Comprising Cap Analogs at the 5′ End to Degradation with the Dcp1/2 Enzyme.
The aim of this study was to check whether incorporation of selected 5′-phosphothioate cap analogs to 5′ end of RNA could influence susceptibility of thus prepared transcripts towards Dcp1/2 decapping enzyme activity. Schizosaccharomyces pombe recombinant protein in the form of a heterodimer Dcp1/2 was obtained as described previously (Floor, Jones et al. 2010). The trancripts utilized in this assay were obtained by transcription in vitro using RNA SP6 polymerase (New England BioLabs). Annealed oligonucleotides: […] (SEQ ID NO.: 1), and […] (SEQ ID NO: 2) were used as a template in in vitro transcription, the oligonucleotides comprising the promoter sequence for SP6 polymerase (ATTTAGGTGACACTATAGA (SEQ ID NO: 3)) allow to obtain 35 nt long RNAs having a sequence of […] (SEQ ID NO: 4), however 5′ end capped RNAs are 36 nt long. Typical in vitro transcription reaction was performed in volume 20 μl and was incubated in 40° C. for 2 hours and contained the following: 1U SP6 polymerase, 1 U RiboLock RNase Inhibitor (ThermoFisher Scientific), 0.5 mM ATP/CTP/UTP, 0.125 mM GTP, 1.25 mM dinucleotide cap analog and 0.1 μM template. Following 2 hours incubation, 1U DNase I (Ambion) was added to the reaction mixture and incubation was continued for 30 min in 37° C., after that EDTA was added to 25 mM final concentration. Obtained RNAs were purified using RNA Clean & Concentrator-25 (Zymo Research). Then the quality of the synthesized RNA was determined on a denaturating 15% polyacrylamide gel. The concentration of the RNA was in turn evaluated spectrophotometrically. […] RNA having a cap at the 5′ end was 26 nt long. The reaction of cleaving the 3′ ends was as follows: 1 μM of RNA was incubated with 1 μM of DNazyme 10-23 in a mixture containing 50 mM MgCl2 and 50 mM Tris-HCl pH 8.0 for 1 hour in 37° C. (Coleman et al., 2004).
For enzymatic tests 20 ng of each RNA was used, which were incubated with 3.5 nM Dcp1/2 enzyme in buffer containing 50 mM Tris-HCl pH 8.0, 50 mM NH4Cl, 0.01% NP-40, 1 mM DTT, and 5 mM MgCl2. Reactions were performed at 37° C. in the final volume of 25 μl. The reaction was stopped after 0, 5, 15 and 30 min by adding an equal amount of a mixture of 5 M urea, 44% formamide, 20 mM EDTA, 0.03% bromophenol blue, 0.03% xylene cyanol. Reaction products were resolved on denaturing 15% polyacrylamide gels, after the electrophoretic separation was completed, the gel was stained with SYBR Gold (Invitrogen) and visualized using a Storm 860 PhosphorImager (GE Healthcare). Quantification of the obtained results was performed with ImageQuant software (Molecular Dynamics). Representative results of this assay were presented on FIG. 8, FIG. 9 and also in Table 6.

[2] = system: rabbit reticulocyte lysate; experiment: Translational efficiency of capped Renilla luciferase mRNAs in rabbit reticulocyte lysate; format: biochemical; conditions: Renilla luciferase mRNA capped with the analog; normalized to m^7GpppG-capped mRNA; biological triplicates
Procedure: Test 5. Study on the Effect of the Presence of Novel Cap Analogs on Translational Efficiency of mRNAs in Rabbit Reticulocyte Lysate.
The aim of this study was to check the effect of introducing novel cap analogs at the 5′ end of mRNAs on translation efficiency. For this purpose series of Renilla luciferase encoding mRNAs, and differing in the cap structure at the 5′ end were prepared. The transcripts used for this test were obtained by in vitro transcription reaction using SP6 RNA polymerase. As the template for the in vitro transcription a PCR product was used, prepared using primers […] (SEQ ID NO: 6) and […] (SEQ ID NO: 7) and the hRLuc-pRNA2(A)128 plasmid (Williams et al. 2010). PCR reaction thus conducted allowed to introduce promoter sequence for SP6 polymerase upstream of the sequence encoding Renilla luciferase. The transcription reaction itself was similar to the short RNA synthesis described above (Test 4). The reaction was conducted for 2 hours in 20 μl in 40° C. and contained the following: 1U SP6 polymerase, 1 U RiboLock RNase Inhibitor (ThermoFisher Scientific), 0.5 mM ATP/CTP/UTP, 0.125 mM GTP, 1.25 mM dinucleotide cap analog and […] of a template. Following 2 hours incubation, 1U DNase I (Ambion) was added and incubation was continued for 30 min in 37° C., after that EDTA was added to 25 mM final concentration. Obtained mRNAs were purified using NucleoSpin RNA Clean-up XS (Macherey-Nagel). Quality of the synthetized RNA was checked on a denaturing 15% polyacrylamide gel. The RNA concentrations were determined spectrophotometrically.
An in vitro translation reaction was performed in rabbit reticulocyte lysate (RRL, Promega) in conditions determined for cap-dependent translation (Rydzik et al., 2009). A typical reaction mixture (10 μl) contained: 40% RRL lysate, 0.01 mM mixture of amino acids (Promega), 1.2 mM MgCl2, 170 mM potassium acetate and a Renilla luciferase encoding mRNA with an appropriate cap analog at the 5′ end, the mixture being incubated in 37° C. for 1 hour. Four different concentrations of mRNAs: 0.1 ng/μl, 0.25 ng/μl, 0.5 ng/μl, 0.75 ng/μl were used in the experiment. Activity of synthesized luciferase was measured using Dual-Luciferase Reporter Assay System (Promega) in a microplate reader Synergy H1 (BioTek). Obtained results were analyzed in Origin (Gambit) software, and theoretical curve was fitted to experimental data, wherein the slope of obtained curve represents translation efficiency. Representative data were presented on FIG. 10, whereas average translation efficiency obtained for biological triplicates is presented in Table 6.

mice with SMA = conditions: reported by Van Meerbeke, Gibbs et al.; cited from earlier work
[3] = target: T2, human DcpS enzyme (hDcpS) (Homo sapiens, UniProt Q96C86); experiment: Susceptibility of cap analogs to degradation by DcpS enzyme (RP-HPLC); format: biochemical; conditions: cap analog 20 μM, hDcpS 100 nM, RP-HPLC
T2 construct: made in house
T2 sequence (Q96C86 1-337): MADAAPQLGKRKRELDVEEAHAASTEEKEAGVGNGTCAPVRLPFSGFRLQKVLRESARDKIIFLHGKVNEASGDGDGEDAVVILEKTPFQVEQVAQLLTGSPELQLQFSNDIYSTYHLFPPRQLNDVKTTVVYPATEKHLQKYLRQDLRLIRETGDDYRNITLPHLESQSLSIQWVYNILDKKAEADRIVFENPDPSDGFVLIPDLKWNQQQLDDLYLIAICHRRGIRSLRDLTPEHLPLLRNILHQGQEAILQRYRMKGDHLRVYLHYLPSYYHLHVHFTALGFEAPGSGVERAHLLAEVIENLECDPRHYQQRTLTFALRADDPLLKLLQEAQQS
Procedure: Test 1. The Susceptibility Study of Analogs to Degradation by DcpS Enzyme.
The aim of the test was to check if new 5′-thiophosphate cap analogs are hydrolyzed by human DcpS enzyme (hDcpS). Recombinant human protein encoding DcpS enzyme was expressed as described previously (Kowalska, Lewdorowicz et al. 2008). The susceptibility of new analogs to hDcpS hydrolysis is tested in 50 mM Tris-HCl buffer containing 200 mM KCl and 0.5 mM EDTA. Reaction mixture includes the tested cap analog (20 μM) and hDcpS enzyme (100 nM) in 400 μl of buffer. At the appropriate intervals 100 μl sample is collected from the reaction mixture. Sample is incubated at 98° C. for 2.5 min, and then cooled to 0° C. and analyzed on RP-HPLC under conditions described in general informations. In tests also commercially available inhibitor of DcpS was tested, the compound RG3039 (no. 000) (https://www.mda.org/quest/fda-approves-phase-1-clinical-trial-rg3039-sma), GppSG (no. 19), GpppSG (no. 20), as well m^7GpppG (no. 0) and m^7Gpp (no. 00) as controls. Exemplary results obtained are shown on FIG. 5 and Table 5.

| Structure (SMILES) | Dcp1/2 susceptibility [1] | relative translation efficiency [2] | motor function in mice with SMA (mice with SMA) | DcpS susceptibility [3] |
| --- | --- | --- | --- | --- |
| Nc1nc2c(ncn2[C@@H]2O[C@H](COP(=O)(O)OP(=O)(O)OP(=O)(O)OC[C@H]3O[C@@H](n4cnc5c(=O)[nH]c(N)nc54)[C@H](O)[C@@H]3O)[C@@H](O)[C@H]2O)c(=O)[nH]1 [GpppG] | 0 | 0.05 ± 0.01 |  |  |
| Nc1nc(N)c2c(OCC3CCN(Cc4c(Cl)cccc4Cl)CC3)cccc2n1 [No. 000] |  |  | improves motor function |  |
| Cn1c[n+]([C@@H]2O[C@H](COP(=O)(O)OP(=O)([O-])OP(=O)(O)OC[C@H]3O[C@@H](n4cnc5c(=O)[nH]c(N)nc54)[C@H](O)[C@@H]3O)[C@@H](O)[C@H]2O)c2nc(N)[nH]c(=O)c21 [No. 0] | 0.69 | 1.00 |  | hydrolyzable |
| COC1C(O)[C@@H](CSP(=O)([O-])OP(=O)(O)OP(=O)(O)OC[C@H]2O[C@@H](n3cnc4c(=O)[nH]c(N)nc43)C(O)C2O)O[C@H]1n1c[n+](C)c2c(O)nc(N)nc21 (some centres unmarked) [No. 26, P1-(2′-O-methyl-7-methyl-5′-deoxy-5′-thioguanosin-5′-yl)-P3-guanosin-5′-yl triphosphate] | 0.07 | 1.73 ± 0.24 |  |  |
| COC1C(O)[C@@H](COP(=O)(O)OP(=O)(O)OP(=O)([O-])SC[C@H]2O[C@@H](n3cnc4c(=O)[nH]c(N)nc43)C(O)C2O)O[C@H]1n1c[n+](C)c2c(O)nc(N)nc21 (some centres unmarked) [No. 38, P1-(2′-O-methyl-7-methyl-guanosin-5′-yl)-P3-(5′-deoxy-5′-thioguanosin-5′-yl) triphosphate] | 0.52 | 2.23 ± 0.31 |  |  |
| CO[C@@H]1[C@H](O)[C@@H](COP(=O)(O)OP(=O)([O-])OP(=O)(O)OC[C@H]2O[C@@H](n3cnc4c(=O)[nH]c(N)nc43)[C@H](O)[C@@H]2O)O[C@H]1n1c[n+](C)c2c(O)nc(N)nc21 [m2^7,2′-oGpppG] | 0.52 | 1.56 ± 0.14 |  |  |
| COC1C(O)C(COP(=O)(O)OP(=O)(S)OP(=O)(O)OCC2OC(n3cnc4c(=O)[nH]c(N)nc43)C(O)C2O)OC1n1c[n+](C)c2c(=O)[nH]c(N)nc21 (centres unmarked) [m2^7,2′-oGppspG D2] | 0.43 | 3.45 ± 0.42 |  |  |

From US11066436B2, “5′-phosphorothiolate mRNA 5′-end (cap) analogs, mRNA comprising the same, method of obtaining and uses thereof” (Uniwersytet Warszawski, priority 2016, dated 2021)
